From ChEMBL document CHEMBL1201862, “PubChem BioAssay data set” (2004)
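Growth conditions: 96-well plates. Treatment: test compound, 48 hours, 5 concentrations. Analysis: linear interpolation between bracketing concentrations; unreached endpoints set to highest concentration. Abbreviation: GI50, concentration required for 50% inhibition of growth.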 Calls of active or inactive are those of the source. Cut-off read from the data, not from the text of the source: active = GI50 up to about 1.1 µM and inactive = higher.

How the values were obtained:
Experiment in all cases: growth of human tumour cells (NCI), 48 h
CCRF-CEM = test system: CCRF-CEM
SK-OV-3 = test system: SK-OV-3
SF-539 = test system: SF-539
UO-31 = test system: UO-31
SF-295 = test system: SF-295
SNB-75 = test system: SNB-75
U-251 = test system: U-251
HT-29 = test system: HT-29
HCT-116 = test system: HCT-116
NCI-H460 = test system: NCI-H460
Hs-578T = test system: Hs-578T
A498 = test system: A498
MDA-N = test system: MDA-N
MDA-MB-231 = test system: MDA-MB-231
HCT-15 = test system: HCT-15
ACHN = test system: ACHN
NCI-H522 = test system: NCI-H522
K562 = test system: K562
RXF 393 = test system: RXF 393

SMILES	GI50 (CCRF-CEM)	GI50 (SK-OV-3)	GI50 (SF-539)	GI50 (UO-31)	GI50 (SF-295)	GI50 (SNB-75)	GI50 (U-251)	GI50 (HT-29)	GI50 (HCT-116)	GI50 (NCI-H460)	GI50 (Hs-578T)	GI50 (A498)	GI50 (MDA-N)	GI50 (MDA-MB-231)	GI50 (HCT-15)	GI50 (ACHN)	GI50 (NCI-H522)	GI50 (K562)	GI50 (RXF 393)
CC(=O)OCC1=CC2OC(=O)C3=COC(OC4OC(CO)C(O)C(O)C4O)C1C32 (stereo not drawn)	> 100 µM (inactive)	> 100 µM (inactive)	> 100 µM (inactive)	> 100 µM (inactive)	> 100 µM (inactive)	> 100 µM (inactive)	> 100 µM (inactive)	> 100 µM (inactive)	> 100 µM (inactive)	> 10 µM (inactive)	> 100 µM (inactive)	> 100 µM (inactive)	> 100 µM (inactive)	> 100 µM (inactive)	> 100 µM	> 100 µM (inactive)	> 100 µM (inactive)	–	–
S=C(N/N=C/c1ccccn1)N1CCCCC1	< 0.01 µM (active)	< 0.01 µM (active)	0.135 µM (active)	0.0131 µM (active)	0.121 µM (active)	0.0315 µM (active)	< 0.0126 µM (active)	< 0.01 µM (active)	< 0.01 µM (active)	< 0.019 µM (active)	0.902 µM (active)	< 0.0461 µM (active)	0.271 µM (active)	< 0.01 µM (active)	< 0.01 µM	< 0.01 µM (active)	–	< 0.01 µM (active)	0.0705 µM (active)
CCOC(=O)c1cc2ncccc2c2ccccc12	> 100 µM (inactive)	> 100 µM (inactive)	–	> 100 µM (inactive)	> 100 µM (inactive)	> 100 µM (inactive)	> 100 µM (inactive)	> 100 µM (inactive)	> 100 µM (inactive)	> 100 µM (inactive)	> 100 µM (inactive)	–	> 100 µM (inactive)	> 100 µM (inactive)	> 100 µM	> 100 µM (inactive)	> 100 µM (inactive)	> 100 µM (inactive)	> 100 µM (inactive)
CCOc1ccc(N/C(=C(/C(Cl)=C(/Cl)NCCN)[N+](=O)[O-])n2nnc3ccccc32)cc1	22.6 µM (inactive)	> 100 µM (inactive)	18.2 µM (inactive)	37.9 µM (inactive)	70.5 µM (inactive)	46.8 µM (inactive)	35.8 µM (inactive)	33.3 µM (inactive)	24.3 µM (inactive)	> 100 µM (inactive)	27.5 µM (inactive)	56.8 µM (inactive)	58.1 µM (inactive)	25.9 µM (inactive)	17.9 µM	17.9 µM (inactive)	–	26.8 µM (inactive)	–
CNc1nc(N)nc(Nc2ccc(I)cc2)c1N=O	> 100 µM (inactive)	–	> 100 µM (inactive)	27 µM (inactive)	> 100 µM (inactive)	> 100 µM (inactive)	–	24 µM (inactive)	> 100 µM (inactive)	> 100 µM (inactive)	39.1 µM (inactive)	–	> 100 µM (inactive)	> 100 µM (inactive)	> 100 µM	> 100 µM (inactive)	40 µM (inactive)	68.2 µM (inactive)	57.4 µM (inactive)
Clc1ccc(OCc2nnc(COc3ccc(OCc4nnc(COc5ccc(Cl)cc5Cl)o4)c(Cl)c3)o2)c(Cl)c1	17.5 µM (inactive)	–	–	17.9 µM (inactive)	33.3 µM (inactive)	–	23 µM (inactive)	27.4 µM (inactive)	44.1 µM (inactive)	72.4 µM (inactive)	42.5 µM (inactive)	48.3 µM (inactive)	47.3 µM (inactive)	21.7 µM (inactive)	89.7 µM	40.6 µM (inactive)	18.1 µM (inactive)	24.3 µM (inactive)	20.1 µM (inactive)
COc1ccc(C2SC(=N)Nc3c2c(C)nn3C(=O)c2ccncc2)cc1OC (stereo not drawn)	> 10 µM (inactive)	> 10 µM (inactive)	> 10 µM (inactive)	–	> 10 µM (inactive)	> 10 µM (inactive)	> 10 µM (inactive)	> 10 µM (inactive)	> 10 µM (inactive)	> 10 µM (inactive)	> 10 µM (inactive)	–	> 10 µM (inactive)	> 10 µM (inactive)	> 10 µM	> 10 µM (inactive)	> 10 µM (inactive)	> 10 µM (inactive)	> 10 µM (inactive)
Cc1nc(C(N)=S)sc1/C(CC(=O)C(=O)Nc1cccc2ccc(O)cc12)=N\NC(=O)c1ccncc1	33.4 µM (inactive)	> 100 µM (inactive)	94.2 µM (inactive)	98.2 µM (inactive)	> 100 µM (inactive)	> 100 µM (inactive)	68.5 µM (inactive)	37.8 µM (inactive)	55.8 µM (inactive)	22.9 µM (inactive)	> 100 µM (inactive)	–	63.5 µM (inactive)	> 100 µM (inactive)	41.9 µM	> 100 µM (inactive)	34.5 µM (inactive)	–	> 100 µM (inactive)
O=C1OCN(c2ccccc2)C12CCN(Cc1ccccc1)CC2	15.5 µM (inactive)	74.6 µM (inactive)	20.8 µM (inactive)	51.3 µM (inactive)	16.4 µM (inactive)	19.4 µM (inactive)	16.9 µM (inactive)	16.4 µM (inactive)	31.7 µM (inactive)	22.9 µM (inactive)	23.9 µM (inactive)	–	23.6 µM (inactive)	21.8 µM (inactive)	33.7 µM	49.2 µM (inactive)	–	5.35 µM (inactive)	16.9 µM (inactive)
Cc1cc(S(=O)(=O)Nc2nc3ccccc3n2-c2ccccc2)c(S)cc1Cl	> 100 µM (inactive)	–	> 100 µM (inactive)	> 100 µM (inactive)	44.4 µM (inactive)	> 100 µM (inactive)	> 100 µM (inactive)	–	> 100 µM (inactive)	56.5 µM (inactive)	> 100 µM (inactive)	–	87.5 µM (inactive)	> 100 µM (inactive)	> 100 µM	> 100 µM (inactive)	> 100 µM (inactive)	> 100 µM (inactive)	> 100 µM (inactive)
O=c1[nH]c(Nc2nc3ccccc3[nH]2)nc(O)c1Cc1ccccc1	> 100 µM (inactive)	–	> 100 µM (inactive)	> 100 µM (inactive)	–	24 µM (inactive)	56.8 µM (inactive)	> 100 µM (inactive)	> 100 µM (inactive)	> 100 µM (inactive)	56 µM (inactive)	> 100 µM (inactive)	> 100 µM (inactive)	> 100 µM (inactive)	> 100 µM	61 µM (inactive)	> 100 µM (inactive)	> 100 µM (inactive)	–
CC(=O)O[C@H]1CC[C@H]2[C@@H]3CCC4=C(C(=O)C=CC4(C)OC(C)=O)[C@H]3CC[C@]12C (stereo partly drawn)	31.6 µM (inactive)	–	43.6 µM (inactive)	55.3 µM (inactive)	98.4 µM (inactive)	45 µM (inactive)	82.6 µM (inactive)	46.6 µM (inactive)	33.2 µM (inactive)	42.3 µM (inactive)	> 100 µM (inactive)	> 100 µM (inactive)	34.6 µM (inactive)	41 µM (inactive)	64.3 µM	54 µM (inactive)	45.8 µM (inactive)	33.1 µM (inactive)	32.1 µM (inactive)
CC(=O)Nc1ccc(N2C(=O)CS(=O)(=O)C2c2cccc(Oc3ccccc3)c2)cc1 (stereo not drawn)	53.1 µM (inactive)	27.4 µM (inactive)	19.5 µM (inactive)	17.5 µM (inactive)	17 µM (inactive)	19.4 µM (inactive)	17.7 µM (inactive)	19.1 µM (inactive)	20.1 µM (inactive)	17.8 µM (inactive)	28.9 µM (inactive)	–	16.8 µM (inactive)	17.4 µM (inactive)	17.3 µM	16.6 µM (inactive)	17.2 µM (inactive)	18.8 µM (inactive)	18.9 µM (inactive)
Cc1cccc(C)c1NC(=O)C(=O)C(c1ccccc1Cl)S(=O)(=O)Cc1ccccc1Cl (stereo not drawn)	> 100 µM (inactive)	> 29.4 µM (inactive)	16 µM (inactive)	> 100 µM (inactive)	23.7 µM (inactive)	11.2 µM (inactive)	40.6 µM (inactive)	> 100 µM (inactive)	> 82.2 µM (inactive)	> 100 µM (inactive)	41.4 µM (inactive)	–	> 100 µM (inactive)	31.1 µM (inactive)	> 100 µM	53.3 µM (inactive)	> 100 µM (inactive)	> 100 µM (inactive)	29.8 µM (inactive)
COc1ccccc1/N=N/C(=N\NC(=O)c1ccc(C)cc1)c1ccc(N(CCC#N)CCC#N)cc1C	0.693 µM (active)	32.5 µM (inactive)	> 100 µM (inactive)	61.9 µM (inactive)	48.5 µM (inactive)	24.1 µM (inactive)	43.9 µM (inactive)	39.7 µM (inactive)	31.6 µM (inactive)	32.3 µM (inactive)	39.3 µM (inactive)	51.8 µM (inactive)	45.6 µM (inactive)	47.9 µM (inactive)	41.4 µM	89.1 µM (inactive)	–	37.8 µM (inactive)	25.5 µM (inactive)
COc1ccc(-c2nnc3n(C)c4ccccc4n3c2=O)cc1	> 100 µM (inactive)	–	32.7 µM (inactive)	42.8 µM (inactive)	29.7 µM (inactive)	20.8 µM (inactive)	27.7 µM (inactive)	> 100 µM (inactive)	48.6 µM (inactive)	38.3 µM (inactive)	33 µM (inactive)	> 100 µM (inactive)	> 100 µM (inactive)	18.2 µM (inactive)	> 100 µM	63 µM (inactive)	77.8 µM (inactive)	–	31.1 µM (inactive)
